Test results: patent publication US8338565B2, “Macrocyclic compounds for inhibition of tumor necrosis factor alpha” (Ensemble Therapeutics Corporation, priority 2008, dated 2012)
Read-outs that look alike come from different tables or passages of the source. Numbered stars: 1 amine (or outer) side, 2 acyl side, 3 side chain; on linkers, the order of the positions; unused ones are H or OH. Bridge positions count the residues as written; N and C are the ends. Square brackets hold non-standard residues; d marks the D form. Peptide text beside a SMILES is read from it. Phe(4-CF3) = N[C@@H](Cc1ccc(C(F)(F)F)cc1)C(=O)O; dPhe(4-NH2) = Nc1ccc(C[C@@H](N)C(=O)O)cc1; d(hPhe) = N[C@H](CCc1ccccc1)C(=O)O; Suc = O=C(CCC(=O)[*:2])[*:1]

Key:
[1] = test system: TNF-α (degradation of IkB in HeLa cells or A431 cells); assay: Human cell-based assay: inhibition of TNF-α induced degradation of IkB; conditions: for inhibition at 5 µM: read-out: Inhibition at Various Compound Concentrations, 5 μM; for inhibition at 10 µM: read-out: Inhibition at Various Compound Concentrations, 10 μM
[2] = target: T1, TNFα / TNFα receptor (TNFα R1/Fc) (Homo sapiens, UniProt P01375); assay: Inhibition of binding of TNFα to the TNFα receptor (plate ELISA competition); conditions: Table 2
T1 construct: purchased R&D Systems
T1 sequence (P01375 77-233 limits assumed, species assumed): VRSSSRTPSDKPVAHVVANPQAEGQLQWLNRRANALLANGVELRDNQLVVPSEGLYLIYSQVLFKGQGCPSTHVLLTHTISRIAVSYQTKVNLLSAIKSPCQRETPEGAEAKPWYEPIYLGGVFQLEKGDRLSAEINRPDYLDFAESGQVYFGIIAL
In short: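 Plates were coated with TNFα at 15 nM. Test compound and 8.33 nM receptor-Fc (PBST, 2% DMSO) were first mixed in solution for 30 min at room temperature, then transferred to the plates for another 30 min. Competition was read by absorbance at 450 nm after HRP anti-human IgG Fc detection with TMB.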

SMILES	inhibition at 5 µM [1] [%]	inhibition at 10 µM [1] [%]	IC50 ([2]; Activity (IC50, inhibition of TNFα binding to TNFα R1/Fc)) [µM]	inhibition at 5 µM ([1]; 5 μM compound, HeLa or A431 cells) [%]	inhibition at 10 µM ([1]; 10 μM compound, HeLa or A431 cells) [%]	IC50 ([2]; read-out: Activity (IC50, inhibition of TNFα binding to TNFα R1/Fc)) [µM]
O=C1COc2ccc(cc2)C[C@@H](C(=O)N[C@H](Cc2ccccc2)C(=O)O)NC(=O)[C@@H](CCc2ccccc2)NC(=O)[C@H](Cc2ccc(-c3ccccc3)cc2)NC(=O)[C@@H](Cc2cccs2)N1 [Compound 324]	10 to 50	10 to 50	< 10			
O=C1CCC(=O)N[C@H](CCc2ccccc2)C(=O)N[C@@H](Cc2ccc(C(F)(F)F)cc2)C(=O)N[C@H](Cc2ccccc2)C(=O)N[C@@H](C(=O)N[C@@H](Cc2ccccc2)C(=O)O)Cc2ccc(cc2)N1 [Compound 12] ([d(hPhe)][Phe(4-CF3)][dF][dPhe(4-NH2)]F-OH; linker N-4 via Suc)				10 to 50	10 to 50	< 10
